SMILES strings stand for the structures.

Experiment [1] deals with T1, Poly [ADP-ribose] polymerase 2 (Homo sapiens, UniProt Q9UGN5). Kind of experiment: Inhibition of PARP-2 (unknown origin).
For experiment [2], the species on record is Homo sapiens. Kind of experiment: Selectivity index, ratio of IC50 for PARP-2 (unknown origin) to IC50 for PARP-1 (unknown origin).
Experiment [3] concerns the target Poly [ADP-ribose] polymerase 1 (Homo sapiens, UniProt P09874). Kind of experiment: Inhibition of recombinant human full-length PARP-1 using biotinylated substrate.
The species entered for experiment [4] is Homo sapiens. Briefly: Selectivity index, ratio of IC50 for inhibition of recombinant human full-length PARP-2 to IC50 for inhibition of recombinant human full-length PARP-1.
The target of experiment [5] is T1, Poly [ADP-ribose] polymerase 2. Briefly: Inhibition of recombinant human full-length PARP-2 using biotinylated substrate.

T1 sequence (Q9UGN5 whole entry): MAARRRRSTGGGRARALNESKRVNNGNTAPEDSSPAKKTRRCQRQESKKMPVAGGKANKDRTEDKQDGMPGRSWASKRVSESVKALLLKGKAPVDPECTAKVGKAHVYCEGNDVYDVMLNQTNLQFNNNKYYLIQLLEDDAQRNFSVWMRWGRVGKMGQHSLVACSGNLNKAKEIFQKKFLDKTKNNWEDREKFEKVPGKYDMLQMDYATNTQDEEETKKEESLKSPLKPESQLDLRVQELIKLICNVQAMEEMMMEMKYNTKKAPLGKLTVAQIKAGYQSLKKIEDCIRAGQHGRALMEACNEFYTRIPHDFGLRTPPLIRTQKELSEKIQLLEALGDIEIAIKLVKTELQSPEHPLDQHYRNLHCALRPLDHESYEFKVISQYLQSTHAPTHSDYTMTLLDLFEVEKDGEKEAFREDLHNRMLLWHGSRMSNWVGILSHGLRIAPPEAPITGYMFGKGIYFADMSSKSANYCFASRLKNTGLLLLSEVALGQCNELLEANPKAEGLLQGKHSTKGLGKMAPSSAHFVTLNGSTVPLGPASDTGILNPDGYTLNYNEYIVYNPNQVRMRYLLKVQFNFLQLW
Chain of Poly [ADP-ribose] polymerase 1 (P09874 whole entry): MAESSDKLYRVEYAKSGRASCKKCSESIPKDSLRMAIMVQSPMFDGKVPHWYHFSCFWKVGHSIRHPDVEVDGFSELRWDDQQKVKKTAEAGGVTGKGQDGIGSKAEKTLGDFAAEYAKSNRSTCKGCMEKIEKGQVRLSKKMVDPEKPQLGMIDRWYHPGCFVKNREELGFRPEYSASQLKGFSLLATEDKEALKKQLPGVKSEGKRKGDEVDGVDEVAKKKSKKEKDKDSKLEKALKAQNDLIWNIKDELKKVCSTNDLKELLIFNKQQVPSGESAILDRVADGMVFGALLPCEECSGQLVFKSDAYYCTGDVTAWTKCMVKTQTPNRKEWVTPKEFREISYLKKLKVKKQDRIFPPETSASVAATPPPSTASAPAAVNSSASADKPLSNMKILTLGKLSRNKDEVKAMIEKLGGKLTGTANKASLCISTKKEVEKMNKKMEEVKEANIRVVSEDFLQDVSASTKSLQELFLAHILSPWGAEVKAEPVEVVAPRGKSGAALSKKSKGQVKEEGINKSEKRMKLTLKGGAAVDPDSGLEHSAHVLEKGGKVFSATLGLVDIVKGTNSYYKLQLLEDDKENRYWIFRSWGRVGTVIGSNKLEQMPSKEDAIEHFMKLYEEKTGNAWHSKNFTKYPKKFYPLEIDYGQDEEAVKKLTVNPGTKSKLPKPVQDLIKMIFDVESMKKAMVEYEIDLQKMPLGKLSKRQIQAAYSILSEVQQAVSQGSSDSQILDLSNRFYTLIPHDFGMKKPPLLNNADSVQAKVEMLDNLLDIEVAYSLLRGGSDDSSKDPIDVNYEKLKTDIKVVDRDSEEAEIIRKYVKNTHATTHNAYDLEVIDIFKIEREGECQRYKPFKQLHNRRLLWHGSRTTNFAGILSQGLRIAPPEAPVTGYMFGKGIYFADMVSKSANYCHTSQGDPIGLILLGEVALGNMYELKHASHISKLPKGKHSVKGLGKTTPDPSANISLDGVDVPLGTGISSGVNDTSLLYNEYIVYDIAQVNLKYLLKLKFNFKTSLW

As usually defined, the IC50 is the concentration that inhibits the measured activity by half. With `Cn1cccc1/C=C1\C(=O)NC(=O)c2ccccc21`, half-maximal inhibition in experiment [1] (IC50) required 40 µM. Further, the Ratio IC50 in the experiment filed under Homo sapiens [2] worked out at 88.9.
Regarding `COc1ccc(CN2CCN(Cc3c(O)cc(O)c4c(=O)cc(-c5ccc(O)cc5)oc34)CC2)c(OC)c1OC`, the 50% inhibitory concentration (IC50) was 0.0216 µM in experiment [3] and 1.2 µM in experiment [5]. Also, in the experiment filed under Homo sapiens [4], the Ratio IC50 amounted to 55.5.
On the same counts, the results for `O=c1cc(-c2ccc(O)cc2)oc2c(CN3CCN(CC4CCCCC4)CC3)c(O)cc(O)c12` are 0.0583 µM, 3.2 µM and 54.9.
The corresponding values for `O=c1cc(-c2ccc(O)cc2)oc2c(CN3CCN(c4ccccc4O)CC3)c(O)cc(O)c12` are 0.037 µM, 2 µM and 54.
The corresponding values for `O=c1cc(-c2ccc(O)cc2)oc2c(CN3CCN(Cc4ccc(Cl)cc4)CC3)c(O)cc(O)c12` are 0.0316 µM, 1.8 µM and 57.
Turning to `Cc1ccc(-c2cc(=O)c3c(O)cc(O)c(-c4cccc(-c5cc(=O)c6c(O)cc(O)cc6o5)c4)c3o2)cc1`, the values for the IC50 in experiment [3] and in experiment [5] were 0.296 µM and 12.5 µM, respectively. Moreover, the Ratio IC50 in the experiment filed under Homo sapiens [4] came out at 42.2.
On the same counts, the results for `CC(C)CCN1CCN(Cc2c(O)cc(O)c3c(=O)cc(-c4ccc(O)cc4)oc23)CC1` are 0.0706 µM, 3.7 µM and 52.4.
The corresponding values for `O=c1cc(-c2cccc(-c3c(O)cc(O)c4c(=O)cc(-c5ccc(O)c(O)c5)oc34)c2)oc2cc(O)cc(O)c12` are 0.642 µM, 29.5 µM and 45.9.
The corresponding values for `COc1ccc(CN2CCN(Cc3c(O)cc(O)c4c(=O)cc(-c5ccc(O)cc5)oc34)CC2)cc1` are 0.0354 µM, 2 µM and 56.5.
Consider `O=c1cc(-c2ccc(O)cc2)oc2c(CN3CCN(Cc4ccc(C(F)(F)F)cc4)CC3)c(O)cc(O)c12`, for which the IC50 in experiment [3] is 0.0298 µM; in experiment [5] it was 1.9 µM. Besides, the Ratio IC50 in the experiment listed under Homo sapiens [4] came out at 63.7.
The corresponding values for `COc1cc(CN2CCN(Cc3c(O)cc(O)c4c(=O)cc(-c5ccc(O)cc5)oc34)CC2)cc(OC)c1` are 0.0272 µM, 1.7 µM and 62.5.
Regarding `COc1cc(/C=N/NC(N)=S)c(Br)c(Br)c1OC`, the IC50 in experiment [1] was > 1 µM. Besides, the Ratio IC50 in the experiment listed under Homo sapiens [2] is > 33.9.
Consider `Cc1cc(C)cc(COC(=O)N2CCN(Cc3c(O)cc(O)c4c(=O)cc(-c5ccc(O)cc5)oc34)CC2)c1`, for which the 50% inhibitory concentration (IC50) in experiment [3] came to 0.0346 µM; in experiment [5], 2 µM. The Ratio IC50 in the experiment filed under Homo sapiens [4] worked out at 57.8.
Take `O=C(c1ccc(Cl)cc1)N1CCN(Cc2c(O)cc(O)c3c(=O)cc(-c4ccc(O)cc4)oc23)CC1`: the 50% inhibitory concentration (IC50) stood at 0.0562 µM in experiment [3] and 3 µM in experiment [5]. For the same compound, in the experiment listed under Homo sapiens [4], the Ratio IC50 was determined as 53.4.
The corresponding values for `O=C(c1cccc(F)c1F)C1CCN(Cc2c(O)cc(O)c3c(=O)cc(-c4ccc(O)cc4)oc23)CC1` are 0.0792 µM, 4.5 µM and 56.8.
The corresponding values for `O=c1cc(-c2ccc(O)cc2)oc2c(CN3CCN(c4ccc(C(F)(F)F)cc4)CC3)c(O)cc(O)c12` are 0.0498 µM, 2.8 µM and 56.2.
The corresponding values for `O=C(c1cccc(C(F)(F)F)c1)N1CCN(Cc2c(O)cc(O)c3c(=O)cc(-c4ccc(O)cc4)oc23)CC1` are 0.0419 µM, 2.9 µM and 69.2.

The record behind these values is ChEMBL document CHEMBL4842357, “Discovery of Novel Apigenin-Piperazine Hybrids as Potent and Selective Poly (ADP-Ribose) Polymerase-1 (PARP-1) Inhibitors for the Treatment of Cancer” (J Med Chem, 2021).
